Some test systems named below: SK-MEL-28; SR; SN12C; SK-OV-3; IGROV-1; PC-3; TK-10; MOLT-4; CCRF-CEM; U-251; Hs-578T; MDA-MB-435; COLO 205; ACHN; CAKI-1; NCI-H226; HOP-92; 786-0; SK-MEL-2; RPMI-8226.
Experiment in all cases: NCI-60 cell line screen, 48 h

SMILES strings stand for the structures.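 96-well plates; 48 h exposure; 5 concentrations. Endpoints by linear interpolation between flanking doses. Not reached: highest tested concentration assigned. GI50: concentration for 50% inhibition of growth.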 Active and inactive are the calls of the source. Rule as the data show it: active = GI50 up to about 1.1 µM and inactive = higher.

Take `CC1=C(C(=O)OCc2ccncc2)C(C2=C(C)SCCS2)C(C(=O)OCc2ccncc2)=C(C)N1`: the GI50 in the experiment on SK-MEL-28 was 16.8 µM (inactive); in the experiment with SR, 33.6 µM (inactive); in the experiment with SN12C it was 25.1 µM (inactive); with SK-OV-3, 26.6 µM (inactive); with IGROV-1, 62.5 µM (inactive); in the experiment on PC-3, 20.9 µM (inactive). Moreover, the GI50 in the experiment with TK-10 is 40.8 µM (inactive); in the experiment with MOLT-4, 15.3 µM (inactive); with CCRF-CEM it was 17.7 µM (inactive); with U-251, 16.7 µM (inactive); with Hs-578T it was 10.6 µM (inactive); with MDA-MB-435, 17.8 µM (inactive). The GI50 in the experiment with COLO 205 was 22.2 µM (inactive); in the experiment with ACHN it was 34.5 µM (inactive); with CAKI-1 it was 26.3 µM (inactive); in the experiment with NCI-H226 it was 18.5 µM (inactive); with HOP-92, 12.3 µM (inactive); in the experiment on 786-0, 28.6 µM (inactive).
`c1ccc(CSCCc2ccncc2)cc1`: the GI50 in the experiment on SK-MEL-28, with SN12C, in the experiment on SK-OV-3, with IGROV-1, in the experiment on PC-3 and in the experiment on TK-10 was > 100 µM (inactive) throughout. In addition, the GI50 in the experiment on MOLT-4 was > 100 µM (inactive); in the experiment with CCRF-CEM, > 100 µM (inactive); in the experiment with SK-MEL-2, 41.5 µM (inactive); in the experiment on U-251 it was > 100 µM (inactive); in the experiment on Hs-578T it was > 100 µM (inactive); in the experiment with MDA-MB-435, > 100 µM (inactive). Besides, the GI50 with COLO 205 is > 100 µM (inactive); in the experiment on RPMI-8226, 49.9 µM (inactive); in the experiment with ACHN, > 100 µM (inactive); in the experiment with CAKI-1 it was < 0.01 µM (active); with NCI-H226, > 100 µM (inactive); in the experiment with HOP-92, 15.2 µM (inactive). Further, the GI50 in the experiment with 786-0 is > 100 µM (inactive).
Regarding `COc1cc(C2c3cc4c(cc3OC(N3CCOCC3)C2C)OCO4)ccc1O` (configuration not stated), the GI50 with SK-MEL-28 is 34.1 µM (inactive); with SR it was 5.66 µM (inactive); in the experiment with SN12C, 40 µM (inactive); in the experiment with IGROV-1, 16.4 µM (inactive); with PC-3, 7.28 µM (inactive); with TK-10 it was 36.5 µM (inactive). Besides, the GI50 in the experiment with MOLT-4 is 6.25 µM (inactive); in the experiment on CCRF-CEM, 8.67 µM (inactive); in the experiment with SK-MEL-2, 6.24 µM (inactive); in the experiment on U-251, 14.5 µM (inactive); in the experiment with Hs-578T, 6.55 µM (inactive); in the experiment with MDA-MB-435, 2.81 µM (inactive). Also, the GI50 with COLO 205 is 25.3 µM (inactive); in the experiment on RPMI-8226, 4.22 µM (inactive); with ACHN it was 21.2 µM (inactive); with CAKI-1 it was 31.2 µM (inactive); in the experiment on HOP-92, 2.84 µM (inactive); with 786-0 it was 18.4 µM (inactive).
With `CSC1=C(C(=O)Nc2ccccc2)C(N)=NC1=O`, the GI50 was > 100 µM (inactive) in the experiment with SK-MEL-28; 32.4 µM (inactive) with SR; > 100 µM (inactive) in the experiment with SN12C; > 100 µM (inactive) in the experiment on SK-OV-3; > 100 µM (inactive) with PC-3; > 100 µM (inactive) in the experiment on TK-10. For the same compound, the GI50 in the experiment on MOLT-4, in the experiment with CCRF-CEM, in the experiment with SK-MEL-2, with U-251, in the experiment on Hs-578T and with MDA-MB-435 was > 100 µM (inactive) each time. For the same compound, the GI50 with COLO 205 was > 100 µM (inactive); in the experiment with RPMI-8226 it was > 100 µM (inactive); in the experiment with CAKI-1, 27.5 µM (inactive); in the experiment on NCI-H226 it was > 100 µM (inactive); in the experiment with 786-0, > 100 µM (inactive).
For the compound `O=C(O)C(SC1=NC(=O)C2(NN1)c1ccccc1-c1ccccc12)SC1=NC(=O)C2(NN1)c1ccccc1-c1ccccc12`, the GI50 with SK-MEL-28, in the experiment on SN12C, in the experiment with SK-OV-3, in the experiment on IGROV-1, with PC-3 and with TK-10 was > 10 µM (inactive) in each case. The GI50 in the experiment on MOLT-4 was 4.09 µM (inactive); in the experiment on CCRF-CEM, > 10 µM (inactive); with SK-MEL-2, > 10 µM (inactive); in the experiment with U-251, > 10 µM (inactive); in the experiment with Hs-578T it was > 10 µM (inactive); with MDA-MB-435, > 10 µM (inactive). The GI50 in the experiment on COLO 205 is > 10 µM (inactive); in the experiment on RPMI-8226 it was 7.33 µM (inactive); with ACHN it was > 10 µM (inactive); with CAKI-1, > 10 µM (inactive); with NCI-H226, > 10 µM (inactive); in the experiment with HOP-92, > 10 µM (inactive). The GI50 in the experiment with 786-0 was > 10 µM (inactive).
In the case of `CNc1cccc2c1C(C)C[C@]1(C)C(=O)Nc3ccccc3[C@H]21` (some centres not stated), the GI50 with SK-MEL-28 was 30.3 µM (inactive); in the experiment with SR, 23.8 µM (inactive); in the experiment with SN12C, 21 µM (inactive); in the experiment with IGROV-1, 35.8 µM (inactive); with PC-3, 27.4 µM (inactive); in the experiment on TK-10, 13.8 µM (inactive). Also, the GI50 in the experiment on MOLT-4 is 32.8 µM (inactive); in the experiment with CCRF-CEM, 40.7 µM (inactive); in the experiment with SK-MEL-2, 24.1 µM (inactive); with Hs-578T, 27.7 µM (inactive); in the experiment on MDA-MB-435, 23.5 µM (inactive); in the experiment on COLO 205, 29.8 µM (inactive). The GI50 in the experiment on RPMI-8226 was 54.6 µM (inactive); in the experiment with ACHN, 23.1 µM (inactive); in the experiment with CAKI-1 it was 26.5 µM (inactive); in the experiment with NCI-H226, 24.9 µM (inactive); in the experiment with 786-0, 17.9 µM (inactive).
Take `O=C(OCc1ccccc1)c1nc2ccccc2n1S(=O)(=O)c1ccccc1`: the GI50 with SK-MEL-28, with SN12C, in the experiment on SK-OV-3, in the experiment with IGROV-1, with PC-3 and in the experiment with TK-10 was > 100 µM (inactive) throughout. Further, the GI50 in the experiment on MOLT-4, in the experiment with CCRF-CEM, in the experiment on SK-MEL-2, in the experiment with U-251, in the experiment on Hs-578T and in the experiment on MDA-MB-435 was > 100 µM (inactive) each time. Besides, the GI50 with COLO 205 was 88.7 µM (inactive); in the experiment on RPMI-8226, > 100 µM (inactive); with ACHN it was > 100 µM (inactive); with CAKI-1, > 100 µM (inactive); in the experiment with NCI-H226, > 100 µM (inactive); in the experiment on HOP-92, > 100 µM (inactive). Also, the GI50 in the experiment with 786-0 was > 100 µM (inactive).
For `N#Cc1ccc(OCc2ccc3nc(-c4ccccc4)c(Cl)nc3c2)cc1`, the GI50 with SK-MEL-28 was > 100 µM (inactive); in the experiment on SR, > 100 µM (inactive); in the experiment on SN12C, > 100 µM (inactive); in the experiment with IGROV-1 it was > 100 µM (inactive); with PC-3, > 100 µM (inactive); in the experiment on TK-10 it was 58.1 µM (inactive). The GI50 in the experiment with MOLT-4 is > 100 µM (inactive); with CCRF-CEM it was > 100 µM (inactive); in the experiment with SK-MEL-2, > 100 µM (inactive); in the experiment on U-251, 72.1 µM (inactive); in the experiment on Hs-578T it was > 100 µM (inactive); in the experiment with MDA-MB-435, > 100 µM (inactive). Also, the GI50 with COLO 205 is > 100 µM (inactive); with RPMI-8226, > 100 µM (inactive); in the experiment on ACHN, 43.6 µM (inactive); in the experiment on CAKI-1, > 100 µM (inactive); with HOP-92 it was > 100 µM (inactive); with 786-0 it was 54 µM (inactive).
As for `O=C(Nc1nnc(-c2ccccc2)o1)C(SC(=S)N1CCCCC1)c1ccccc1` (configuration not stated), the GI50 was 24.1 µM (inactive) with SK-MEL-28; 4.98 µM (inactive) in the experiment with SR; 10.9 µM (inactive) with SN12C; 28.4 µM (inactive) with SK-OV-3; 15.9 µM (inactive) in the experiment on IGROV-1; 17.5 µM (inactive) in the experiment with PC-3. Besides, the GI50 was 56 µM (inactive) with TK-10; 3.53 µM (inactive) in the experiment on MOLT-4; 3.35 µM (inactive) with CCRF-CEM; 17.7 µM (inactive) with SK-MEL-2; 14.4 µM (inactive) in the experiment on U-251; 59.8 µM (inactive) in the experiment on Hs-578T. The GI50 in the experiment on MDA-MB-435 was 21.3 µM (inactive); in the experiment with COLO 205, 31 µM (inactive); in the experiment with RPMI-8226, 16.2 µM (inactive); with ACHN, 15.1 µM (inactive); in the experiment on CAKI-1 it was 18.9 µM (inactive); in the experiment with NCI-H226, 25.4 µM (inactive). Further, the GI50 in the experiment on 786-0 was 16.7 µM (inactive).
With `CC1=NNC(=O)C1C1C(=O)NN=C(c2c[nH]c3ccccc23)C1Br` (configuration not stated), the GI50 in the experiment on SK-MEL-28 is 69 µM (inactive); with SN12C, > 100 µM (inactive); in the experiment on SK-OV-3, 57.4 µM (inactive); with IGROV-1 it was 1.09 µM (active); with PC-3, 25.5 µM (inactive); with TK-10, > 100 µM (inactive). In addition, the GI50 was 25.4 µM (inactive) in the experiment with MOLT-4; 25.7 µM (inactive) in the experiment with CCRF-CEM; 21.1 µM (inactive) in the experiment on SK-MEL-2; 38.3 µM (inactive) in the experiment on U-251; 28 µM (inactive) in the experiment with Hs-578T; 48.6 µM (inactive) in the experiment on MDA-MB-435. Further, the GI50 with COLO 205 is 33.8 µM (inactive); with RPMI-8226, 40.7 µM (inactive); in the experiment with ACHN, 42.3 µM (inactive); with CAKI-1, 62.4 µM (inactive); in the experiment on NCI-H226, 35 µM (inactive); with HOP-92, > 100 µM (inactive). The GI50 with 786-0 was > 100 µM (inactive).
Turning to `O[C@H]1[C@H]2c3cc4c(cc3CN3CCC(=C[C@@H]1O)[C@H]23)OCO4` [LYCORINE], the GI50 in the experiment with SK-MEL-28 is 2.7 µM (inactive); with SR, 1.47 µM (inactive); with SN12C, 1.7 µM (inactive); in the experiment on SK-OV-3, 1.84 µM (inactive); in the experiment with IGROV-1 it was 0.332 µM (active); in the experiment with PC-3, 1.45 µM (inactive). For the same compound, the GI50 in the experiment on TK-10 is 2.67 µM (inactive); with MOLT-4 it was 1.29 µM (inactive); in the experiment on CCRF-CEM it was 1.82 µM (inactive); in the experiment with SK-MEL-2 it was 0.376 µM (active); in the experiment with U-251, 1.99 µM (inactive); in the experiment on Hs-578T, 2.91 µM (inactive). Moreover, the GI50 in the experiment with MDA-MB-435 is 2.07 µM (inactive); with COLO 205, 1.25 µM (inactive); in the experiment on RPMI-8226 it was 2.01 µM (inactive); in the experiment with ACHN it was 0.849 µM (active); in the experiment on CAKI-1, 1.24 µM (inactive); in the experiment on NCI-H226, 2.76 µM (inactive). The GI50 in the experiment on 786-0 is 3.1 µM (inactive).

The values are drawn from ChEMBL document CHEMBL1201862, “PubChem BioAssay data set” (2004).
